# Source: patent publication US20210177814A1, “USE OF GUANABENZ OR DERIVATES THEREOF FOR THE TREATMENT OF TYPE I IFN-DEPENDENT PATHOLOGIES” (INSERM (Institut National de la Santé et de la Recherche …, priority 2018, published 2021)
# How the values were obtained:
# TLR9 [1] = molecular target: T1, TLR9 (Homo sapiens, UniProt Q9NR96); assay: HEK-Blue hTLR9 SEAP reporter assay; type: cell-based; parameters: expressed in transfected cells; host or cells: HEK-Blue (HEK 293) hTLR9 reporter cells; settings: 2.5 μM ODN 2006, GBZ 50 μM
# T1 sequence (Q9NR96 26-1032): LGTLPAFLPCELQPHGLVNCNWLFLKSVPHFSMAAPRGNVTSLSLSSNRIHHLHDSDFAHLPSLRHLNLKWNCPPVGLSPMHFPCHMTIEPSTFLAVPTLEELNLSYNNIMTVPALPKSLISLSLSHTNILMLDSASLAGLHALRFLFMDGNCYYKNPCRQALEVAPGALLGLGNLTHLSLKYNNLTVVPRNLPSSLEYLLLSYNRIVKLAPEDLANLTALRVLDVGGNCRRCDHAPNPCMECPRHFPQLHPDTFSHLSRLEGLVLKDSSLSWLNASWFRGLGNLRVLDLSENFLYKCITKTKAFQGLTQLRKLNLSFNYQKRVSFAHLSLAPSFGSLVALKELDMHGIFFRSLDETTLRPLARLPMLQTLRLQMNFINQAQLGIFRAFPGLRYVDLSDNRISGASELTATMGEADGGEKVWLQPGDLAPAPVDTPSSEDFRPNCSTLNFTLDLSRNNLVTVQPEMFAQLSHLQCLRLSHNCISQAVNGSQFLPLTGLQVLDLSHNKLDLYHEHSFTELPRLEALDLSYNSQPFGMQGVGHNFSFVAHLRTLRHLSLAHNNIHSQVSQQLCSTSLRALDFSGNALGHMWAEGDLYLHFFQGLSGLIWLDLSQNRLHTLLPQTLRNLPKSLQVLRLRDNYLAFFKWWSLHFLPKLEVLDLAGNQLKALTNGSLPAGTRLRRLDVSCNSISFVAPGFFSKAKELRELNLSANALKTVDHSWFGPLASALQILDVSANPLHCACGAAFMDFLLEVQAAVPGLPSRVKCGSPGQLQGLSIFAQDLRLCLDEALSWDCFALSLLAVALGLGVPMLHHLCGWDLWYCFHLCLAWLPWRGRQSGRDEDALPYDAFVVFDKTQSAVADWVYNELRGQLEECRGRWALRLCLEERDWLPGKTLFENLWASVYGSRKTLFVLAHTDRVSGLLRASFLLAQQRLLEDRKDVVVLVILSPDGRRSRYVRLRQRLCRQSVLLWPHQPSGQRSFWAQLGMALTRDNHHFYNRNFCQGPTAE
# Experimental: (§1) FIG. 1: Guanabenz inhibits TLR3 and TLR9 activation in mouse Flt3-L DCs and human blood pDCs. A) Sorted bone marrow derived Flt3L-DCs were activated for 6 h with 10 μg/mL poly I:C LMW (TLR3 in DC1) or 1 μM ODN 1585 (TLR9 in pDCs). GBZ was added at 50 μM and inhibited IFN-β and Interleukin-6 (IL-6) production in activated cells. B) hTLR4, hTLR3, hTLR9 and hTLR7 expressed in the reporter HEK-Blue™ cells are inhibited by GBZ. TLR-expressing HEK-Blue™ cells were respectively activated with 100 ng/mL LPS, 10 μg/mL poly I:C LMW, 2.5 μM ODN 2006 or 5 μg/mL imiquimod, respectively. GBZ was added at 50 μM. TLR activity was measured indirectly through SEAP activity as absorbance at 405 nm. […] Protein concentration of IFN-α and TNF-α secreted were measured at the indicated time points or at 16 h. […]
# Given the efficiency of GBZ on mouse TLR3 and TLR9, we turned to human TLRs, in order to extend the relevance of our observations. GBZ-mediated inhibition was first evaluated on NF-kB signaling by monitoring secreted alkaline phosphatase (SEAP) reporter levels in HEK-293 cells expressing TLR3, TLR4, TLR7, TLR9 (FIG. 1B). […] The functionality of the TLR9 transduction pathway was next evaluated by using phospho-flow detection of 40S ribosomal protein S6 (rpS6) phosphorylation, a well characterized early signaling event down-stream of TLR activation by LPS or viruses.
# TLR9 [2] = molecular target: T1, TLR9; assay: Cytokine secretion by human primary blood pDCs activated with CpG ODN 2216 or lupus patient serum; type: cell-based; parameters: endogenous in cells; host or cells: human primary blood pDCs; settings: 3 μM CpG ODN 2216 or 2% lupus serum, GBZ 50 μM
# Experimental: as §1
# Mouse IFN-β quantification in culture supernatant was performed using the Mouse Interferon Beta ELISA kit (PBL InterferonSource); mouse IL-6, TNFα, IL-10, human TNFα and human IFNα were quantified using ELISA kit (eBioscience) respectively, according to manufacturer instructions.
# Given the efficiency of GBZ on mouse TLR3 and TLR9, we turned to human TLRs, in order to extend the relevance of our observations. GBZ-mediated inhibition was first evaluated on NF-kB signaling by monitoring secreted alkaline phosphatase (SEAP) reporter levels in HEK-293 cells expressing TLR3, TLR4, TLR7, TLR9 (FIG. 1B). […]
structure (smiles),measurement,setting,value
"NC(N)=N/N=C/c1c(Cl)cccc1Cl [GBZ, 2-(2,6-dichlorobenzylidene)-hydrazinecarboximidamide]",TLR9-dependent activation of the SEAP reporter,TLR9 [1],inhibited
same,production of TNF-α,TLR9 [2],prevented
same,production of type-I IFN (IFN-α),TLR9 [2],prevented
